# Values quoted from earlier work as cited in patent publication US20250099443A1, “METHODS FOR SYNTHESIZING ALEUTIANAMINE AND ANALOGS THEREOF” (California Institute of Technology, priority 2023, published 2025).
# Tested on: human pancreatic adenocarcinoma cell line PANC-1
structure (smiles),measurement,setting,value
O=C1C2=C3C4=[N+](CCc5c[nH]c1c54)[C@@H]1C[C@]34S[C@@H](C=C4C=C1Br)N2 [Aleutianamine],IC50,"human pancreatic adenocarcinoma cell line PANC-1, read-out: IC50 against PANC-1",25 nM
same,potency against PANC-1 relative to gemcitabine,times greater than that of gemcitabine,over 160 times
